Measurements taken from patent US10336734B2, “Inhibitors of ACK1/TNK2 tyrosine kinase” (H. LEE MOFFITT CANCER CENTER AND RESEARCH INSTITUTE, INC., priority 2015, dated 2019).
Structures can show the parent of a compound that is named as a salt.

Key:
ACK1 [1] = target: T1, ACK1 (Homo sapiens (Human), UniProt Q07912); experiment: ACK1 ELISA; format: biochemical; settings: read-out: ACK1 ELISA % inhibition at 10 μM
[2] = tested on: histone H4 Y88-phosphorylation; experiment: Immunoblot of H4 Y88-phosphorylation in ligand-treated PC cells; format: cell-based; settings: serum and androgen starved PC cells, ligand activated; 5 μM (DHT 10 nM)
Description: FIG. 2A through 2C. ACK1 inhibitor (R)-9bMS suppresses epigenetic modification of histone H4 at tyrosine 88.
To assess endogenous H4-phosphorylation, serum and androgen starved PC cells were treated with ligands to activate ACK1. It led to robust H4 Y88-phosphorylation, suppressed upon (R)-9bMS treatment (FIG. 2A). […] Moreover, H4 Y88-phosphorylation was also detected in human CRPCs using mass spectrometry, which was validated by immunoblotting (FIG. 3A-3C).

ACK1 [3] = target: T1, ACK1; experiment: ACK1 IC50 (RB); format: biochemical
JAK2 = JAK2 (Homo sapiens (Human), UniProt O60674); experiment: JAK2 IC50 (RB); format: biochemical
JAK2, sequence (O60674 whole entry, species assumed): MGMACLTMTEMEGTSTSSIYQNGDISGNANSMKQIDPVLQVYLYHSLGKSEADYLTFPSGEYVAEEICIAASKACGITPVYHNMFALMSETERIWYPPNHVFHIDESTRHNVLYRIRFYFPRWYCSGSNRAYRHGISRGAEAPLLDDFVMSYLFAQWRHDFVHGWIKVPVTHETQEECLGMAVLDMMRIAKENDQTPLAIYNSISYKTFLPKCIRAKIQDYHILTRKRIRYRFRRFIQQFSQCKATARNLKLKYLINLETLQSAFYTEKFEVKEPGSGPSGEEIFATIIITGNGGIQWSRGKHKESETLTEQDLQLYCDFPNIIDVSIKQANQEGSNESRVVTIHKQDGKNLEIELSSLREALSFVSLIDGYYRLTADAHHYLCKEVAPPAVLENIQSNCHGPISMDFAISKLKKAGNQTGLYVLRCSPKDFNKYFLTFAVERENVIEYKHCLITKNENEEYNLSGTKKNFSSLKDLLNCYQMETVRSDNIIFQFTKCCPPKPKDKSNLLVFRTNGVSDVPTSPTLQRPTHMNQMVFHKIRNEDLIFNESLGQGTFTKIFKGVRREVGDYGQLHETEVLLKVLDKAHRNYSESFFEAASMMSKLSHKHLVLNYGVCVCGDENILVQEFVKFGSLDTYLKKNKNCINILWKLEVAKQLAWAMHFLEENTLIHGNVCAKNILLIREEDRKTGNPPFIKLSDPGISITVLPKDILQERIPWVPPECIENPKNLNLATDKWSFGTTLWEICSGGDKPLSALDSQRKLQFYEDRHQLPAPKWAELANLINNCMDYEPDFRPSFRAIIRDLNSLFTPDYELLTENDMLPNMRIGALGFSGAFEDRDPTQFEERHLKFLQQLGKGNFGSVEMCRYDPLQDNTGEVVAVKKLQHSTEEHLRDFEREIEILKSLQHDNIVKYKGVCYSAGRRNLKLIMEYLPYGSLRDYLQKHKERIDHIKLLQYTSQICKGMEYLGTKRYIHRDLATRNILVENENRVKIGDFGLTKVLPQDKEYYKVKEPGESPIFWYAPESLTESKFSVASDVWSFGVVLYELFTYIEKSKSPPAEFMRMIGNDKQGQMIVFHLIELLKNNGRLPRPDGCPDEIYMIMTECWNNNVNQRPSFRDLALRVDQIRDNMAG

ALK = ALK (Homo sapiens (Human), UniProt Q9UM73); experiment: ALK IC50 (RB); format: biochemical
ALK, sequence (Q9UM73 19-1620, species assumed): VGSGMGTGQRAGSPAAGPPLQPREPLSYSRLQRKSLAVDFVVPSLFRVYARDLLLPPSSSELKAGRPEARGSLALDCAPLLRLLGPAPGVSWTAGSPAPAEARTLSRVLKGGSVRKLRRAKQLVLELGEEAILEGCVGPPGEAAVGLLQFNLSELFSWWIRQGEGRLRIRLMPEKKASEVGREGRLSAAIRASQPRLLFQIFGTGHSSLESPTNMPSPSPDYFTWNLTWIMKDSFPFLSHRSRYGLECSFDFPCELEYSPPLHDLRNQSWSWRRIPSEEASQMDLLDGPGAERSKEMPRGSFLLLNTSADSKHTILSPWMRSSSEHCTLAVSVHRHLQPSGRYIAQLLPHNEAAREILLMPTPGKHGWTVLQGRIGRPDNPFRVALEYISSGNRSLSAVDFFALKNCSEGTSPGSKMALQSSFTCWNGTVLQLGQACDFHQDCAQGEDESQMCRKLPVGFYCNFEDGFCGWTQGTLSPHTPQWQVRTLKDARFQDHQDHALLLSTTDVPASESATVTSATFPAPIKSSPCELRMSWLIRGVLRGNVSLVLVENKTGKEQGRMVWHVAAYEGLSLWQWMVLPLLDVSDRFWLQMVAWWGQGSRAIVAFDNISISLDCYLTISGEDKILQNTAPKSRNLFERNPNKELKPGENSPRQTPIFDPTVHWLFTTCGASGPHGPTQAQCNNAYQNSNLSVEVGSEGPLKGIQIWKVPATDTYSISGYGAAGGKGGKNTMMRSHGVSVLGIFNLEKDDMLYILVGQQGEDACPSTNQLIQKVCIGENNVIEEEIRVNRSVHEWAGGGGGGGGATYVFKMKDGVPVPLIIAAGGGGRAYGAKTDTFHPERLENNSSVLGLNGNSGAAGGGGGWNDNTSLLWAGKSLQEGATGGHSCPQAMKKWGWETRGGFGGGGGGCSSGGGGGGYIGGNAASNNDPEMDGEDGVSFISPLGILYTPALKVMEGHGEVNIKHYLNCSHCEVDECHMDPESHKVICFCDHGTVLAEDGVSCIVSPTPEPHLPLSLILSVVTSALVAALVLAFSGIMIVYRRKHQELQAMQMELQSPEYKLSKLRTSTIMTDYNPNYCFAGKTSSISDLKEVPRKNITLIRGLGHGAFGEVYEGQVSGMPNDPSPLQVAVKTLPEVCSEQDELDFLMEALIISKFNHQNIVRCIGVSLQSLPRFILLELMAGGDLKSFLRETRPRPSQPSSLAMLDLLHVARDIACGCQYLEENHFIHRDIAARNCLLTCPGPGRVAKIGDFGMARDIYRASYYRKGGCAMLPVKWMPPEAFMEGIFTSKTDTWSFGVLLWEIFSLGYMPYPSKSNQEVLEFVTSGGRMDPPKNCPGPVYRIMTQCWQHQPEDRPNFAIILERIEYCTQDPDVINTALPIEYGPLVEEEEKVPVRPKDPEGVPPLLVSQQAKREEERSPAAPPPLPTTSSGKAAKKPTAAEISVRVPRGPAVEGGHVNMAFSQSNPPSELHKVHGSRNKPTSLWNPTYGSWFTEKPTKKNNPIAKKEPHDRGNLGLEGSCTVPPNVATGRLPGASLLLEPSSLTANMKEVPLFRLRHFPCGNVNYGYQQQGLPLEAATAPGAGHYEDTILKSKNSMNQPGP

c-Src = c-Src (Homo sapiens (Human), UniProt P12931); experiment: c-Src IC50 (RB); format: biochemical
c-Src, sequence (P12931 whole entry, looked up, species assumed): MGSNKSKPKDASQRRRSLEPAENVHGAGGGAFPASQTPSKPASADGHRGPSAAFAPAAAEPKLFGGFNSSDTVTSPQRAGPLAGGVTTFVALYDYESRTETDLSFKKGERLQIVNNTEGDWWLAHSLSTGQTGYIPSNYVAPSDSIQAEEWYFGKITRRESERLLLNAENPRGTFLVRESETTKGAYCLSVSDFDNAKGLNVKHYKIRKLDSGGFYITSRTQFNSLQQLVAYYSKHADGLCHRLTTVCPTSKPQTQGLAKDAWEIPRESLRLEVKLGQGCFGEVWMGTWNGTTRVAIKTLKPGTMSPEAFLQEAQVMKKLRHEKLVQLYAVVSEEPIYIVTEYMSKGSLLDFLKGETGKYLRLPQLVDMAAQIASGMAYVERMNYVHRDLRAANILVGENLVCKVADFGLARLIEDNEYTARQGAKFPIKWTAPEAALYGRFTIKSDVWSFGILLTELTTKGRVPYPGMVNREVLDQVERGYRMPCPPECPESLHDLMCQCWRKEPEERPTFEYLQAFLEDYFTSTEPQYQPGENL

[4] = tested on: LNCaP cells expressing constitutively activated ACK1; settings: mouse xenograft model; cited from earlier work
[5] = tested on: castration and radioresistant prostate xenograft tumor; settings: in vivo; cited from earlier work
[6] = tested on: non-small cell lung cancer (NSCLC) cell lines; settings: panel of NSCLC cell lines; cited from earlier work

T1 sequence (Q07912 whole entry): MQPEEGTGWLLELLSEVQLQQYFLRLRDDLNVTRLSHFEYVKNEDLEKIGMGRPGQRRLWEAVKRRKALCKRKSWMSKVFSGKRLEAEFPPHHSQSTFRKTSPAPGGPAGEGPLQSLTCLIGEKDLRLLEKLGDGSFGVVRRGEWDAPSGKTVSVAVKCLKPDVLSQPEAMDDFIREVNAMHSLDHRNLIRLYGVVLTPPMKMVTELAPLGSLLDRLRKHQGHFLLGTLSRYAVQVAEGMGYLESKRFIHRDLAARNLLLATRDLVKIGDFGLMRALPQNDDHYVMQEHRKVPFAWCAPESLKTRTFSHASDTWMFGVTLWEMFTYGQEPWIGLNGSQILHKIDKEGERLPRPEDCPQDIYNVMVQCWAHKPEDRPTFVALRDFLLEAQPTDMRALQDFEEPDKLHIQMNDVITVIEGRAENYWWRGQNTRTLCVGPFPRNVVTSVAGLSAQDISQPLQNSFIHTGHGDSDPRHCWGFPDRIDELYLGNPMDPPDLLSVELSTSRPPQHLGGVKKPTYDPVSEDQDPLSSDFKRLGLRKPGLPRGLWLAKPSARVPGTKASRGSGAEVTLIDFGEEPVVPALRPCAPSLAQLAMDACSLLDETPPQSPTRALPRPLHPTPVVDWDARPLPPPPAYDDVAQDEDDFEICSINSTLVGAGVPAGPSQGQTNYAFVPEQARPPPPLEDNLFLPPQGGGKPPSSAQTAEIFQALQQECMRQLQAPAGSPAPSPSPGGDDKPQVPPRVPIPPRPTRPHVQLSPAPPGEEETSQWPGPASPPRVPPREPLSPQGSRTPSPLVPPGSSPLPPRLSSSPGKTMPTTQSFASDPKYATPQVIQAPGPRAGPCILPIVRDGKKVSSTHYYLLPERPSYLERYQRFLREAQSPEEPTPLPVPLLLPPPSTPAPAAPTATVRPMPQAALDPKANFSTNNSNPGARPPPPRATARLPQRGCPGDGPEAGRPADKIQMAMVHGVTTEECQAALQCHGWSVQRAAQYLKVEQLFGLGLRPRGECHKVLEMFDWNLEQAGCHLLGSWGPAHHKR

| Structure (SMILES) | inhibition at 10 µM (ACK1 [1]) [%] | further results |
| --- | --- | --- |
| CN1CCN(c2ccc(Nc3ncc(Cl)c(NCCc4ccccc4F)n3)cc2)CC1 [Example 13, 5-Chloro-N4-(2-fluorophenethyl)-N2-(4-(4-methylpiperazin-1-yl)phenyl)pyrimidine-2,4-diamine] | 91 | – |
| CN1CCN(c2ccc(Nc3ncc(Cl)c(NCc4ccco4)n3)cc2)CC1 [Example 1, 5-Chloro-N4-(furan-2-ylmethyl)-N2-(4-(4-methylpiperazin-1-yl)phenyl)pyrimidine-2,4-diamine] | 96 | – |
| CNC(=O)c1ccc(N2C(=S)N(c3ccc(C#N)c(C(F)(F)F)c3)C(=O)C2(C)C)cc1F [enzalutamide] | – | H4 Y88-phosphorylation [2]: remained unaffected |
| CN1CCC(NC(=O)c2ccc(Nc3ncc(Cl)c(NC[C@H]4CCCO4)n3)cc2F)CC1 [Example 25, (R)-4-((5-chloro-4-(((tetrahydrofuran-2-yl)methyl)amino)pyrimidin-2-yl)amino)-2-fluoro-N-(1-methylpiperidin-4-yl)benzamide] | 86.9 | – |
| CN1CCN(c2ccc(Nc3ncc(Cl)c(NCCc4ccccc4Cl)n3)cc2)CC1 [Example 11, 5-Chloro-N4-(2-chlorophenethyl)-N2-(4-(4-methylpiperazin-1-yl)phenyl)pyrimidine-2,4-diamine] | 91 | – |
| COc1cc(N2CCN(C)CC2)ccc1Nc1ncc(Cl)c(NC[C@H]2CCCO2)n1 [Example 26, (R)-5-Chloro-N^2-[2-methoxy-4-(4-methylpiperazin-1-yl)phenyl]-N^4-[(tetrahydrofuran-2-yl)methyl]pyrimidine-2,4-diamine] | – | IC50 (ACK1 [3]): 39 nM; IC50 (JAK2): 1080 nM; IC50 (ALK): 34 nM; IC50 (c-Src): 16800 nM |
| CN1CCN(c2ccc(Nc3ncc(Cl)c(NCCc4ccccc4)n3)cc2)CC1 [Example 7, 5-chloro-N2-(4-(4-methylpiperazin-1-yl)phenyl)-N4-phenethylpyrimidine-2,4-diamine] | 91.9 | – |
| CN1CCN(c2ccc(Nc3ncc(Cl)c(NCC4CCCN4)n3)cc2)CC1 (stereo not drawn) [Example 2, 5-Chloro-N2-(4-(4-methylpiperazin-1-yl)phenyl)-N4-(pyrrolidin-2-ylmethyl)pyrimidine-2,4-diamine tri-TFA salt] | 18.3 | – |
| CN1CCN(c2ccc(Nc3ncc(Cl)c(NCCCc4ccccc4)n3)cc2)CC1 [Example 8, 5-Chloro-N2-(4-(4-methylpiperazin-1-yl)phenyl)-N4-(3-phenylpropyl)pyrimidine-2,4-diamine] | 85.8 | – |
| Cc1nc(Nc2ncc(C(=O)Nc3c(C)cccc3Cl)s2)cc(N2CCN(CCO)CC2)n1 [Dasatinib] | – | Growth of LNCaP cells expressing constitutively activated ACK1, xenograft [4]: significantly reduced |
| CN1CCN(c2ccc(Nc3ncc(Cl)c(NCC4CCCCO4)n3)cc2)CC1 (stereo not drawn) [Example 4, 5-Chloro-N2-(4-(4-methylpiperazin-1-yl)phenyl)-N4-((tetrahydro-2H-pyran-2-yl)methyl)pyrimidine-2,4-diamine hydrochloride] | 97 | – |
| CN1CCN(c2ccc(Nc3ncc(Cl)c(NCCc4c(F)cccc4Cl)n3)cc2)CC1 [Example 12, 5-Chloro-N4-(2-chloro-6-fluorophenethyl)-N2-(4-(4-methylpiperazin-1-yl)phenyl)pyrimidine-2,4-diamine] | 93 | – |
| Cc1ccccc1CCNc1nc(Nc2ccc(N3CCN(C)CC3)cc2)ncc1Cl [Example 16, 5-Chloro-N4-(2-methylphenethyl)-N2-(4-(4-methylpiperazin-1-yl)phenyl)pyrimidine-2,4-diamine] | 91 | – |
| CN1CCN(c2ccc(Nc3ncc(Cl)c(NCCc4c(Cl)cccc4Cl)n3)cc2)CC1 [Example 10, 5-Chloro-N4-(2,6-dichlorophenethyl)-N2-(4-(4-methylpiperazin-1-yl)phenyl)pyrimidine-2,4-diamine] | 97 | – |
| CN1CCN(C(=O)Cc2ccc(Nc3ncc(Cl)c(NC[C@H]4CCCO4)n3)cc2)CC1 [Example 24, (R)-2-(4-((5-chloro-4-(((tetrahydrofuran-2-yl)methyl)amino)pyrimidin-2-yl)amino)phenyl)-1-(4-methylpiperazin-1-yl)ethan-1-one] | 86.8 | – |
| Cc1ccc(CNc2nc(Nc3ccc(N4CCN(C)CC4)cc3)ncc2Cl)o1 [Example 3, 5-Chloro-N4-((5-methylfuran-2-yl)methyl)-N2-(4-(4-methylpiperazin-1-yl)phenyl)-pyrimidine-2,4-diamine] | 90.9 | – |
| COc1cc(N2CCN(C)CC2)ccc1Nc1ncc(Cl)c(NCCc2c(F)cccc2Cl)n1 [Example 20, 5-Chloro-N^4-(2-chloro-6-fluorophenethyl)-N^2-[2-methoxy-4-(4-methylpiperazin-1-yl)phenyl]pyrimidine-2,4-diamine] | – | IC50 (ACK1 [3]): 27 nM; IC50 (JAK2): 1720 nM; IC50 (ALK): 7 nM; IC50 (c-Src): 11500 nM |
| c1ccc(-c2oc3ncnc(NC[C@@H]4CCCO4)c3c2-c2ccccc2)cc1 [Example 1b] | – | Castration and radioresistant prostate xenograft tumor growth [5]: inhibits |
| C[C@]12CCC(=O)C[C@@H]1CC[C@@H]1[C@@H]2CC[C@]2(C)[C@@H](O)CC[C@@H]12 [DHT] | – | H4 Y88-phosphorylation [2]: remained unaffected |
| COc1ccccc1CCNc1nc(Nc2ccc(N3CCN(C)CC3)cc2OC)ncc1Cl [Example 21, 5-Chloro-N^2-[2-methoxy-4-(4-methylpiperazin-1-yl)phenyl]-N^4-(2-methoxyphenethyl)pyrimidine-2,4-diamine] | – | IC50 (ACK1 [3]): 24 nM; IC50 (JAK2): 860 nM; IC50 (ALK): 2 nM; IC50 (c-Src): 8250 nM |
| CN1CCN(c2ccc(Nc3ncc(Cl)c(NCCc4ccccn4)n3)cc2)CC1 [Example 15, 5-Chloro-N2-(4-(4-methylpiperazin-1-yl)phenyl)-N4-(2-(pyridin-2-yl)ethyl)pyrimidine-2,4-diamine] | 91.9 | – |
| COc1ccccc1CCNc1nc(Nc2ccc(N3CCN(C)CC3)cc2)ncc1Cl [Example 14, 5-Chloro-N4-(2-methoxyphenethyl)-N2-(4-(4-methylpiperazin-1-yl)phenyl)pyrimidine-2,4-diamine] | 98 | – |
| CN1CCN(c2ccc(Nc3ncc(Cl)c(NCC4CCCC4)n3)cc2)CC1 [Example 5, 5-Chloro-N4-(cyclopentylmethyl)-N2-(4-(4-methylpiperazin-1-yl)phenyl)pyrimidine-2,4-diamine] | 97 | – |
| COc1cc(Nc2c(C#N)cnc3cc(OCCCN4CCN(C)CC4)c(OC)cc23)c(Cl)cc1Cl [bosutinib] | – | cell migration and invasion [6]: inhibit cell migration and invasion; viability [6]: not viability |
| CN1CCN(c2ccc(Nc3ncc(Cl)c(NCC4CCCN4C)n3)cc2)CC1 (stereo not drawn) [Example 6, 5-Chloro-N2-(4-(4-methylpiperazin-1-yl)phenyl)-N4-((1-methylpyrrolidin-2-yl)methyl)pyrimidine-2,4-diamine tri TFA salt] | 35.6 | – |
| CN1CCN(c2ccc(Nc3ncc(Cl)c(NCCc4ccc(Cl)cc4Cl)n3)cc2)CC1 [Example 9, 5-Chloro-N4-(2,4-dichlorophenethyl)-N2-(4-(4-methylpiperazin-1-yl)phenyl)pyrimidine-2,4-diamine] | 36.5 | – |
